{"source": "patent US10172946B2", "about": "“Monodisperse glycogen and phytoglycogen nanoparticles and use thereof as additives in cosmetics, pharmaceuticals, and food products” (Mirexus Biotechnologies Inc., priority 2013, dated 2019)", "assay": "Photostability of phytoglycogen-ethyl-4-aminocinnamate conjugate versus aminocinnamate", "format": "physicochemical", "details": "after 4 h of exposure to UV-irradiation, thin film", "description": "Aminocinnamate and a phytoglycogen-ethyl-4-aminocinnamate conjugate were dissolved in ethanol or in water, respectively.\nSolutions were deposited as thin films onto a quartz plate and dried in air for 30 min. After drying, the samples were irradiated with UV light, as in Example 11, for 4 h and then tested for their photostability.\nPhotodegradation was calculated from the decrease in the maximum absorption of the respective products.", "data": [{"smiles": "CCOC(=O)C=Cc1ccc(N)cc1", "note": "[aminocinnamate, ethyl 4-aminocinnamate]", "values": [{"measurement": "maximum absorbance retained", "value": 40, "unit": "%"}]}]}
